Measurements: patent US12528837B2, “Aryl substituted polymyxin derivatives” (priority 2018, dated 2026)
≈ marks a conversion by molar mass, not a printed value. Like-named read-outs stand apart in the source and are kept apart here. Where a SMILES comes first, the peptide text is derived from it. Bridges are numbered along the chain shown (N, C = ends). [ ]: non-standard residue; d: D form. The star is where a group is joined. X3 = CC(C)c1cccc([C@@H](CN)CC(=O)*)c1; X9 = CC(C)c1cccc([C@H](CN)CC(=O)*)c1; X19 = NC[C@@H](CC(=O)*)c1cccc(Br)c1; X4 = NC[C@@H](CC(=O)*)c1ccc(Cl)cc1; Dab = NCC[C@H](N)C(=O)O; Abu = CC[C@H](N)C(=O)O; Dap = NC[C@H](N)C(=O)O

Columns and labels:
[1] = test system: HK-2 cells; experiment: In vitro renal cell toxicity assay (HK-2); assay type: cell-based
Procedure: The in vitro renal cell toxicity assay was performed according to the following protocol. […] Cells were seeded at 7,500 cells per well in 96-well plates and allowed to adhere overnight. […] Water and DMSO levels were kept constant at 5% and 0.5% respectively. The test compounds were incubated with cells for 24 h at 37° C. 5% CO2 in a humidified atmosphere. […] Media only background values were subtracted before the data was analysed using GraphPad Prism. Individual values were normalised to the vehicle control wells for each compound. Compound concentration values were plotted as log values to enable a dose-response curve to be fitted. The bottom of the curve was constrained to zero and IC50 values were determined. IC50 values are expressed relative to that for PMB in the same experiment. Where multiple determinations have been made, median values are presented.

[2] = Kidney drug level after subcutaneous dose in mouse; assay type: in vivo; conditions: mouse, in vivo
Procedure: Four hours after dosing the animals were euthanised and kidneys removed, trimmed of fat and connective tissue, weighed and immediately snap-frozen. After thawing at room temperature, pairs of kidneys from each animal were placed in 2 mL conical tubes containing pre-weighed ceria-stabilised zirconium oxide beads. […] After 10 min. centrifugation at 13,000 rpm and 6° C., 200 μl of the supernatants were transferred into glass inserts and analysed by LC-MS-MS.

[3] = test system: E. coli CA58; assay type: cell-based
Procedure: (§1) The inoculum was prepared by making a direct suspension of isolated colonies (selected from an 18-24 hour Mueller-Hinton agar plate) adjusted to the 0.5 McFarland standard. […] The assays were performed in duplicate. […] Several of the compounds were subjected to multiple tests, and where this is the case, the MIC presented is the median value obtained. The MIC values are quoted in μg/mL.

[4] = test system: K. pneumoniae CA64; assay type: cell-based
Procedure: as §1

[5] = test system: P. aeruginosa CCUG 59347; assay type: cell-based
Procedure: as §1

[6] = test system: E. coli ATCC 25922; assay type: cell-based; conditions: cation-adjusted Mueller-Hinton Broth, 18-20 h, 35° C.
Procedure: (§2) The inoculum was prepared by making a direct suspension of isolated colonies (selected from an 18-24 hour Mueller-Hinton agar plate) adjusted to the 0.5 McFarland standard. […] The assays were performed in duplicate. […] The MIC values are quoted in μg/mL.

[7] = test system: K. pneumoniae ATCC 13822; assay type: cell-based; conditions: cation-adjusted Mueller-Hinton Broth, 18-20 h, 35° C.
Procedure: as §2

[8] = test system: P. aeruginosa ATCC 27853; assay type: cell-based
Procedure: as §2

[9] = test system: A. baumannii ATCC BAA-747; assay type: cell-based; conditions: ATCC BAA-747
Procedure: as §2

[10] = test system: A. baumannii NCTC 13424; assay type: cell-based; conditions: NCTC 13424
Procedure: as §2

[11] = cation-adjusted Mueller-Hinton Broth, 18-20 h, 35° C.

tissue level at time at 4 h ([2]; sc, 17.2 mg/kg) [ng/g] | MIC E. coli CA58 ([3]; CA58) [µg/mL] | MIC K. pneumoniae CA64 ([4]; CA64) [µg/mL] | MIC P. aeruginosa CCUG 59347 ([5]; CCUG 59347) [µg/mL] | MIC A. baumannii ATCC BAA-747 [9] [µg/mL] | MIC A. baumannii NCTC 13424 [10] [µg/mL] | MIC P. aeruginosa ATCC 27853 ([8]; ATCC 27853) [µg/mL] | Drug Level in Kidney (μg/g kidney, 4 h) ([2]; sc, 17.2 mg/kg) [μg/g kidney] | SMILES | HK-2 rel to PMB ([1]; IC50 relative to PMB in the same experiment, 24 h) | tissue level at time at 4 h ([2]; mice, 17.2 mg/kg free base sc, 4 h, read-out: 4 hr kidney level) [ng/g] | MIC E. coli CA58 [3, 11] [µg/mL] | MIC K. pneumoniae CA64 [4, 11] [µg/mL] | MIC P. aeruginosa CCUG 59347 [5, 11] [µg/mL] | MIC E. coli ATCC 25922 [6] [µg/mL] | MIC K. pneumoniae ATCC 13822 [7] [µg/mL] | MIC P. aeruginosa ATCC 27853 [8, 11] [µg/mL] | HK-2 rel to PMB [1] | 4 hr kidney level/rel. cytotoxicity [2]
– | – | – | – | – | – | – | – | CC[C@@H]1NC(=O)[C@@H](Cc2ccccc2)NC(=O)[C@H](CCN)NC(=O)[C@@H](NC(=O)[C@H](CN)NC(=O)[C@@H](NC(=O)C[C@@H](CN)c2cccc(C(C)C)c2)[C@@H](C)O)CCNC(=O)[C@H]([C@@H](C)O)NC(=O)[C@H](CCN)NC(=O)[C@H](CCN)NC1=O [Example 18] (X9-T[Dap][Dab][Dab][dF][Abu][Dab][Dab]T; lactam 3-C) | 32.8 | 535000 | 16 (≈ 14.2 µM) | 8 (≈ 7.12 µM) | 0.25 (≈ 0.222 µM) | 0.25 (≈ 0.222 µM) | 0.25 (≈ 0.222 µM) | 0.25 (≈ 0.222 µM) | – | –
443000 | 4 (≈ 3.58 µM) | 16 (≈ 14.3 µM) | 0.5 (≈ 0.447 µM) | 0.06 (≈ 0.0536 µM) | 0.06 (≈ 0.0536 µM) | 0.25 (≈ 0.224 µM) | – | CC(C)C[C@@H]1NC(=O)[C@@H](CC(C)C)NC(=O)[C@H](CCN)NC(=O)[C@@H](NC(=O)[C@H](CN)NC(=O)[C@@H](NC(=O)C[C@H](CN)c2cccc(C(C)C)c2)[C@@H](C)O)CCNC(=O)[C@H]([C@@H](C)O)NC(=O)[C@H](CCN)NC(=O)[C@H](CCN)NC1=O [Example 15, (S)-4-amino-3-(3- isopropylphenyl) butanoyl-Thr-Dap- Cyclo[Dab-Dab-DLeu- Leu-Dab-Dab-Thr]] (X3-T[Dap][Dab][Dab][dL]L[Dab][Dab]T; lactam 3-C) | – | – | – | – | – | – | – | – | 52.1 | –
267000 | 4 (≈ 3.49 µM) | 8 (≈ 6.99 µM) | 0.25 (≈ 0.218 µM) | 0.06 (≈ 0.0524 µM) | 0.06 (≈ 0.0524 µM) | 0.06 (≈ 0.0524 µM) | 268 | CC(C)C[C@@H]1NC(=O)[C@@H](Cc2ccccc2)NC(=O)[C@H](CCN)NC(=O)[C@@H](NC(=O)[C@H](CN)NC(=O)[C@@H](NC(=O)C[C@H](CN)c2ccc(Cl)cc2)[C@@H](C)O)CCNC(=O)[C@H]([C@@H](C)O)NC(=O)[C@H](CCN)NC(=O)[C@H](CCN)NC1=O [Example 1, (S)-4-amino-3-(4- chlorophenyl) butanoyl- Thr- Dap-Cyclo[Dab- Dab-DPhe-Leu-Dab- Dab-Thr]] (X4-T[Dap][Dab][Dab][dF]L[Dab][Dab]T; lactam 3-C) | – | – | – | – | – | – | – | – | 8.8 | 30
– | – | – | – | – | – | – | – | CC[C@@H]1NC(=O)[C@@H](CC(C)C)NC(=O)[C@H](CCN)NC(=O)[C@@H](NC(=O)[C@H](CN)NC(=O)[C@@H](NC(=O)C[C@H](CN)c2cccc(Br)c2)[C@@H](C)O)CCNC(=O)[C@H]([C@@H](C)O)NC(=O)[C@H](CCN)NC(=O)[C@H](CCN)NC1=O [Example 32, (S)-4-amino-3-(3- bromophenyl)butanoyl- Thr-Dap-Cyclo[Dab- Dab-DLeu-Abu-Dab- Dab-Thr]] (X19-T[Dap][Dab][Dab][dL][Abu][Dab][Dab]T; lactam 3-C) | – | – | 32 (≈ 28.4 µM) | 32 (≈ 28.4 µM) | 0.5 (≈ 0.444 µM) | 0.25 (≈ 0.222 µM) | 0.5 (≈ 0.444 µM) | 0.5 (≈ 0.444 µM) | – | –
